Measurements: patent publication US11717580B2, “Cyclodextrin-linked polyvalent ligands for complexation of metal ions” (UTI LIMITED PARTNERSHIP, priority 2018, dated 2023)
Where two headings read alike, the source gives them in different places.

How the values were obtained:
[1] = Potentiometric titrations of compound 5 (protonation constants); type: physicochemical
Protocol: T=298K, [L]=0.0625-1 μmol, [extra-HCl]=0-37.3 μmol in NMe4Cl (0.1 M); total initial volume: 4 mL; burette: [NMe4OH]=0.05 M.
Potentiometric titrations were performed to study the deprotonation of compound 5 (FIG. 6). The initial solution of compound 5 alone has a pH of ˜8.4; this value correlates well with extensive deprotonation observed in ATR-FTIR spectrum. Therefore, a solution of HCl in trimethylammonium chloride (0.1 M) was gradually added to the solution to obtain a series of solutions with varied HCl/5 ratios (0→597), while maintaining the total volume constant. To each prepared solution, a titrant solution of tetramethylammonium hydroxide (0.05 M) was added while the pH of the solution recorded; this enabled preparation of a series of titration curves (FIG. 7).
The protonation constant βh for the following equilibrium is defined by equation 1, where L represents the fully deprotonated form (L^14−) of compound 5 (LH14). H is the proton (charges are omitted).
[formula] As dissociation constants Ka are commonly defined by:
[formula] [formula] [formula] it is evident that Ka=log βh−log βh-1 (equation 3)
Table 1 reports all protonation constants determined by titration curve refinement and the corresponding acidity constants. All pKa values were ascribed to successive deprotonation of the carboxylic acids, followed by ammonium functions.

[2] = Potentiometric titrations of compound 5 with Gd(III) (stability constants and speciation of Gd(III) complexes); type: binding
Excerpt: Considering the collection of results obtained for the Gd(III)-compound 5, the best chemical model which fits the data corresponds to: (1) mononuclear GdL species for Gd:L ratio lower than 1, (2) binuclear species Gd2L for Gd:L ratio higher than 1 or (3) trinuclear species Gd3L for Gd:L ratio higher than 2.
The complexation of compound 5 with Gd(III) was studied by potentiometric titrations. While maintaining the amount of compound 5 (0.5 μmol) and HCl (9.95 μmol) constant within the cell, a solution of GdCl3 was then added to reach a specified ratio. This solution was then titrated with tetramethylammonium hydroxide (NMe4OH). It was noted that with the solution containing the highest Gd:L ratios, the addition of same amount of base caused a slower increase of pH (FIG. 12A). This could be explained by the displacement of protons from the protonated groups during Gd(III) complexation, thus acidifying the medium.
The stability constants of the Gd(III) complexes are expressed by the general formula:
[formula] with M being the metal ion, L the ligand, and H the proton (the charges are omitted), and dissociation constant Kmlh can be defined similarly to the case of free ligand as:
[formula] [formula] [formula] Analogously, pKmlh=log βmlh−log βmlh-1 (equation 6)
The stability constants of the Gd(III) complexes are reported in the Table 2 and distribution curves given in FIGS. 12B, 12C and 12D, respectively for 1:1, 2:1 and 3:1 Gd(III):compound 5 ratios.

HeLa cells = test: In vitro cytotoxicity MTT assay, HeLa; type: cell-based; settings: concentrations higher than 1 mM
HepG2 cells = test: In vitro cytotoxicity MTT assay, HepG2; type: cell-based; settings: concentrations higher than 1 mM
[3] = cited from earlier work
[4] = 12 MHz; cited from earlier work

With `O=C(O)CN(CC(=O)O)Cc1cn(C[C@H]2O[C@@H]3O[C@H]4[C@H](O)[C@@H](O)[C@@H](O[C@H]5[C@H](O)[C@@H](O)[C@@H](O[C@H]6[C@H](O)[C@@H](O)[C@@H](O[C@H]7[C@H](O)[C@@H](O)[C@@H](O[C@H]8[C@H](O)[C@@H](O)[C@@H](O[C@H]9[C@H](O)[C@@H](O)[C@@H](O[C@H]2[C@H](O)[C@H]3O)O[C@@H]9Cn2cc(CN(CC(=O)O)CC(=O)O)nn2)O[C@@H]8Cn2cc(CN(CC(=O)O)CC(=O)O)nn2)O[C@@H]7Cn2cc(CN(CC(=O)O)CC(=O)O)nn2)O[C@@H]6Cn2cc(CN(CC(=O)O)CC(=O)O)nn2)O[C@@H]5Cn2cc(CN(CC(=O)O)CC(=O)O)nn2)O[C@@H]4Cn2cc(CN(CC(=O)O)CC(=O)O)nn2)nn1` [Compound 5] as the molecule, how does the “pH of initial solution” value ([1]; compound 5 alone) read?
The value was roughly 8.4.

And the “log βLHh” value ([1]; species LH)?
Its value is 8.80.

What about the pKa ([1]; species LH) of the same molecule?
The pKa was 8.80.

What about the “log βLHh” value ([1]; species LH2) of the same molecule?
The value was 17.77.

And the pKa ([1]; species LH2)?
The pKa was 9.08.

And the “log βLHh” value ([1]; species LH3)?
Its value is 26.44.

And the pKa ([1]; species LH3)?
The pKa was 8.56.

What about the “log βLHh” value ([1]; species LH4) of the same molecule?
Its value is 34.51.

And the pKa ([1]; species LH4)?
Its pKa is 8.07.

What about the “log βLHh” value ([1]; species LH5) of the same molecule?
Its value is 42.44.

And the pKa ([1]; species LH5)?
The pKa was roughly 7.93.

And the “log βLHh” value ([1]; species LH6)?
The value was 50.03.

And the pKa ([1]; species LH6)?
Its pKa is roughly 7.59.

What about the “log βLHh” value ([1]; species LH7) of the same molecule?
Its value is 56.23.

And the pKa ([1]; species LH7)?
Its pKa is 6.20.

What about the “log βLHh” value ([1]; species LH8) of the same molecule?
The value was 61.22.

What about the pKa ([1]; species LH8) of the same molecule?
The pKa was 4.99.

And the “log βLHh” value ([1]; species LH9)?
Its value is 64.85.

And the pKa ([1]; species LH9)?
Its pKa is 3.63.

And the “log βLHh” value ([1]; species LH10)?
The value was 67.42.

What about the pKa ([1]; species LH10) of the same molecule?
The pKa was 2.57.

And the pKa ([1]; species LH11-LH21)?
Its pKa is less than 2.

What about the “log βMLHh” value ([2]; dinuclear species Gd2L (MLH 210)) of the same molecule?
Its value is 36.28.

And the “log βGd (210)−log βGd (110)” value ([2]; introduction of second Gd(III) cation)?
The value was 11.19.

What about the “log βGd (310)−log βGd (210)” value ([2]; introduction of third Gd(III) cation) of the same molecule?
The value was 7.63.

What about the “cytotoxic effect (inhibition)” value (HeLa cells) of the same molecule?
The value was 20-40%.

What about the “cytotoxic effect (inhibition)” value (HepG2 cells) of the same molecule?
The value was 20-40%.

Which pKa [3] does the source give for `CC[N+](CC)(CC)CC` [triethylammonium] here?
The pKa was roughly 10.75.

Which relaxivity [4] does the source give for `CO[C@@H]1[C@@H](OC)[C@H]2O[C@H]3[C@H](OC)[C@@H](OC)[C@@H](O[C@H]4[C@H](OC)[C@@H](OC)[C@@H](O[C@H]5[C@H](OC)[C@@H](OC)[C@@H](O[C@H]6[C@H](OC)[C@@H](OC)[C@@H](O[C@H]7[C@H](OC)[C@@H](OC)[C@@H](O[C@H]8[C@H](OC)[C@@H](OC)[C@@H](O[C@@H]1[C@@H](CN(CC(=O)O)CC(=O)O)O2)O[C@@H]8CN(CC(=O)O)CC(=O)O)O[C@@H]7CN(CC(=O)O)CC(=O)O)O[C@@H]6CN(CC(=O)O)CC(=O)O)O[C@@H]5CN(CC(=O)O)CC(=O)O)O[C@@H]4CN(CC(=O)O)CC(=O)O)O[C@@H]3CN(CC(=O)O)CC(=O)O` [compound 3] here?
Its relaxivity is 8.8 mM⁻¹ s⁻¹.
